Test results: patent publication US8754226B2, “Piperidinyl-substituted lactams as GPR119 modulators” (Array BioPharma Inc., priority 2010, dated 2014)

Tested on: modified version of the GPR119 receptor (94% identity to human receptor)
Experiment: cAMP production assay (LANCE cAMP kit, TR-FRET) in HEK-293 cells
Type: cell-based
Conditions: for cAMP production in HEK-293 cells: HEK-293 cells stably expressing modified GPR119, test compounds 0.2 nM to 10 μM, one-hour incubation at ambient temperature; for Fold over baseline: increase in cAMP relative to basal levels, agonist activity if 1.5-fold or greater
Method: The assay utilized HEK-293 cells that stably express a modified version of the GPR119 receptor (94% identity to human receptor), under the control of a CMV promoter containing a tet-on element for tetracycline-inducible expression. GPR119 agonist-induced cyclic AMP (cAMP) production was measured in this cell line using the LANCE cAMP kit (Perkin Elmer, Waltham, Mass.). To generate a working stock of cells for the assay, cells were treated overnight with 1 μg/mL doxycycline at 37° C. in the presence of 5% CO2 to induce receptor expression. Cells were then harvested by enzymatic dissociation with 0.05% trypsin, resuspended in freezing medium (DMEM growth medium with 10% each of fetal bovine serum and DMSO), aliquoted and frozen at −80° C. On the day of the assay, frozen cells were thawed, washed 1× in PBS and resuspended in Hank's buffered salt solution (HBSS) containing 5 mM HEPES, 0.1% BSA and Alexa Fluor 647-conjugated anti-cAMP antibody (diluted 1:100). The cell suspension was then transferred to a Proxiplate Plus white 384-well assay plate (Perkin-Elmer) at 2000 cells/well. Test compounds at final concentrations ranging from 0.2 nM to 10 μM were added to the assay plate, followed by a one-hour incubation at ambient temperature (volume=10 μL/well). DMSO concentration was held constant at 0.5%. After incubation with test compounds, 10 μL of a detergent buffer containing a biotinylated cAMP/Europium-conjugated streptavidin complex (Europium-labeled cAMP tracer) were added to each well on the assay plate, followed by a 2-hour incubation at ambient temperature. During this incubation cAMP released from lysed cells competes with the Europium-labeled cAMP tracer for binding to the Alexa Fluor 647-conjugated antibody. […] Cellular cAMP levels were then determined by interpolation of raw signal data using a cAMP standard curve. Compounds were determined to have agonist activity if they stimulated a 1.5-fold or greater increase in cAMP relative to basal levels.

Row | Structure (SMILES) | cAMP production in HEK-293 cells [nmol] | Fold over baseline
1 | CS(=O)(=O)c1cc(F)c(O[C@H]2CCN(C3CCN(c4ncc(-c5ccccn5)cn4)CC3)C2=O)cc1F [Example 94, (S)-3-(2,5-difluoro-4-(methylsulfonyl)phenoxy)-1-(1-(5-(pyridin-2-yl)pyrimidin-2-yl)piperidin-4-yl)pyrrolidin-2-one] | 6.9 | 2.0
2 | Cc1nnc(-c2ccc(O[C@H]3CCN(C4CCN(c5ncc(Cl)cn5)CC4)C3=O)c(F)c2)o1 [Example 72, (S)-1-(1-(5-chloropyrimidin-2-yl)piperidin-4-yl)-3-(2-fluoro-4-(5-methyl-1,3,4-oxadiazol-2-yl)Phenoxy)pyrrolidin-2-one] | 7.5 | 2.8
3 | CS(=O)(=O)c1cc(F)c(N[C@H]2CCN(C3CCN(c4ccc(C(F)(F)F)cn4)CC3)C2=O)c(F)c1 [Example 101, (S)-3-(2,6-difluoro-4-(methylsulfonyl)phenylamino)-1-(1-(5-(trifluoromethyl)pyridin-2-yl)piperidin-4-yl)pyrrolidin-2-one] | 6.6 | 2.0
4 | CCS(=O)(=O)c1ccc(N[C@H]2CCN(C3CCN(c4ncc(Cl)cc4F)CC3)C2=O)cn1 [Example 127, (S)-1-(1-(5-chloro-3-fluoropyridin-2-yl)piperidin-4-yl)-3-(6-(ethylsulfonyl)pyridin-3-ylamino)pyrrolidin-2-one] | 13.0 | 2.7
5 | Cc1nc(S(C)(=O)=O)ccc1N[C@H]1CCN(C2CCN(c3cnc(Cl)cn3)CC2)C1=O [Example 133, (S)-1-(1-(5-chloro-pyrazin-2-yl)piperidin-4-yl)-3-(2-methyl-6-(methylsulfonyl)pyridin-3-ylamino)pyrrolidin-2-one] | 27.9 | 2.2
6 | CS(=O)(=O)c1ccc(N[C@H]2CCN(C3CCN(c4cnc(Cl)cn4)CC3)C2=O)cn1 [Example 131, (S)-1-(1-(5-chloropyrazin-2-yl)piperidin-4-yl)-3-(6-(methylsulfonyl)pyridin-3-ylamino)pyrrolidin-2-one] | 24.8 | 3.8
7 | CCc1cnc(N2CCC(N3CC[C@H](Nc4cc(C)c(S(C)(=O)=O)cc4F)C3=O)CC2)cn1 [Example 2, (S)-1-(1-(5-ethylpyrazin-2-yl)piperidin-4-yl)-3-(2-fluoro-5-methyl-4-(methylsulfonyl)phenylamino)pyrrolidin-2-one] | 27.9 | 4.8
8 | CS(=O)(=O)c1cc(F)c(O[C@H]2CCCN(C3CCN(c4ncc(C(F)(F)F)cc4F)CC3)C2=O)cc1F [Example 163, (S)-3-(2,5-difluoro-4-(methylsulfonyl)phenoxy)-1′-(3-fluoro-5-(trifluoromethyl)pyridin-2-yl)-[1,4′-bipiperidin]-2-one] | 18.3 | 3.9
9 | Cc1cc(N[C@H]2CCN(C3CCN(c4cnc(Cl)cn4)CC3)C2=O)c(F)cc1S(C)(=O)=O [Example 1, (S)-1-(1-(5-chloropyrazin-2-yl)piperidin-4-yl)-3-(2-fluoro-5-methyl-4-(methylsulfonyl)phenylamino)pyrrolidin-2-one] | 23.5 | 3.9
10 | CS(=O)(=O)c1cc(F)c(O[C@H]2CCCN(C3CCN(c4cnc(Cl)cn4)CC3)C2=O)cc1F [Example 164, (S)-1′-(5-chloropyrazin-2-yl)-3-(2,5-difluoro-4-(methylsulfonyl)phenoxy)-[1,4′-bipiperidin]-2-one] | 21.6 | 4.3
11 | CS(=O)(=O)c1cc(F)c(N[C@H]2CCN(C3CCN(c4cnc(C#N)cn4)CC3)C2=O)cc1F [Example 16, (S)-5-(4-(3-(2,5-difluoro-4-(methylsulfonyl)phenylamino)-2-oxopyrrolidin-1-yl)piperidin-1-yl)pyrazine-2-carbonitrile] | 21.4 | 4.0
12 | CS(=O)(=O)c1cc(F)c(OC2CCN(C3CCN(c4ncc(-c5ccccc5)cn4)CC3)C2=O)cc1F (stereo not drawn) [Example 88, 3-(2,5-difluoro-4-(methylsulfonyl)phenoxy)-1-(1-(5-phenylpyrimidin-2-yl)piperidin-4-yl)pyrrolidin-2-one trifluoroactetate] | 9.1 | 2.4
13 | CCS(=O)(=O)c1ccc(N[C@H]2CCN(C3CCN(c4cnc(Cl)cn4)CC3)C2=O)cn1 [Example 128, (S)-1-(1-(5-chloropyrazin-2-yl)piperidin-4-yl)-3-(6-(ethylsulfonyl)pyridin-3-ylamino)pyrrolidin-2-one] | 16.6 | 3.4
14 | CN(C)C(=O)c1ccc(O[C@H]2CCN(C3CCN(c4ncc(Cl)cc4F)CC3)C2=O)cn1 [Example 149, (S)-5-(1-(1-(5-chloro-3-fluoropyridin-2-yl)piperidin-4-yl)-2-oxopyrrolidin-3-yloxy)-N,N-dimethylpicolinamide] | 6.8 | 1.5
15 | CS(=O)(=O)c1cc(F)c(N[C@H]2CCCCN(C3CCN(c4cncc(Cl)n4)CC3)C2=O)cc1F.Cl [Example 84, (S)-1-(1-(6-chloropyrazin-2-yl)piperidin-4-yl)-3-(2,5-difluoro-4-(methylsulfonyl)phenylamino)azepan-2-one hydrochloride] | 6.3 | 1.8
16 | CS(=O)(=O)c1ccc(N[C@H]2CCN(C3CCN(c4ncc(C#N)cn4)CC3)C2=O)c(F)c1 [Example 8, (S)-2-(4-(3-(2-fluoro-4-(methylsulfonyl)phenylamino)-2-oxopyrrolidin-1-yl)piperidin-1-yl)pyrimidine-5-carbonitrile] | 8.6 | 2.5
17 | Cc1ccccc1-c1cnc(N2CCC(N3CCC[C@H](Nc4cc(F)c(S(C)(=O)=O)cc4F)C3=O)CC2)cn1 [Example 61, (S)-3-(2,5-difluoro-4-(methylsulfonyl)phenylamino)-1′-(5-o-tolylpyrazin-2-yl)-[1,4′-bipiperidin]-2-one] | 19.6 | 3.1
18 | CCc1cnc(N2CCC(N3CCC[C@H](Nc4ncc(C(F)(F)F)cc4Cl)C3=O)CC2)nc1 [Example 76, (S)-3-(3-chloro-5-(trifluoromethyl)pyridin-2-ylamino)-1′-(5-ethylpyrimidin-2-yl)-[1,4′-bipiperidin]-2-one] | 5.9 | 1.9
19 | CCS(=O)(=O)c1ccc(N[C@H]2CCN(C3CCN(c4cnc(Cl)cn4)CC3)C2=O)c(F)c1 [Example 17, (S)-1-(1-(5-chloropyrazin-2-yl)piperidin-4-yl)-3-(4-(ethylsulfonyl)-2-fluorophenylamino)pyrrolidin-2-one] | 107.3 | 5.3
20 | CS(=O)(=O)c1cc(F)c(N[C@H]2CCN(C3CCN(c4ncc(Cl)cn4)CC3)C2=O)cc1F [Example 6, (S)-3-(2,5-difluoro-4-(methyl-sulfonyl)phenylamino)-1-(1-(5-chloropyrimidin-2-yl)piperidin-4-yl)pyrrolidin-2-one] | 9.2 | 1.8
21 | CS(=O)(=O)c1cc(F)c(N[C@H]2CCCN(C3CCN(c4ccc(Cl)nn4)CC3)C2=O)cc1F [Example 52, (S)-1′-(6-chloropyridazin-3-yl)-3-(2,5-difluoro-4-(methylsulfonyl)phenylamino)-[1,4′-bipiperidin]-2-one] | 19.6 | 4.6
22 | CS(=O)(=O)c1ccc(O[C@H]2CCN(C3CCN(c4cnc(Cl)cn4)CC3)C2=O)cn1 [Example 69, (S)-1-(1-(5-chloropyrazin-2-yl)piperidin-4-yl)-3-(6-(methylsulfonyl)pyridin-3-yloxy)pyrrolidin-2-one] | 21.3 | 3.2
23 | CS(=O)(=O)c1ccc(N[C@H]2CCN(C3CCN(c4ncc(C(F)(F)F)cc4Cl)CC3)C2=O)c(F)c1 [Example 107, (S)-1-(1-(3-chloro-5-(trifluoromethyl)pyridin-2-yl)piperidin-4-yl)-3-(2-fluoro-4-(methylsulfonyl)phenylamino)pyrrolidin-2-one] | 20.9 | 3.2
24 | CCc1ccc(N2CCC(N3CCC(Nc4ccc(S(C)(=O)=O)cc4F)C3=O)CC2)nc1 (stereo not drawn) [Example 24, 1-(1-(5-ethylpyridin-2-yl)piperidin-4-yl)-3-(2-fluoro-4-(methylsulfonyl)phenylamino)pyrrolidin-2-one] | 24.8 | 2.9
